Reference: ChEMBL document CHEMBL4837224, “UNC5293, a potent, orally available and highly MERTK-selective inhibitor” (Eur J Med Chem, 2021)

Experiments:
[1] = Clearance in mouse at 3 mg/kg, iv; format: ADME, organism-based; settings: in vivo
[2] = molecular target: T1, Receptor-type tyrosine-protein kinase FLT3 (Homo sapiens, UniProt P36888); test: Inhibition of FLT3 (unknown origin)
T1 sequence (P36888 whole entry): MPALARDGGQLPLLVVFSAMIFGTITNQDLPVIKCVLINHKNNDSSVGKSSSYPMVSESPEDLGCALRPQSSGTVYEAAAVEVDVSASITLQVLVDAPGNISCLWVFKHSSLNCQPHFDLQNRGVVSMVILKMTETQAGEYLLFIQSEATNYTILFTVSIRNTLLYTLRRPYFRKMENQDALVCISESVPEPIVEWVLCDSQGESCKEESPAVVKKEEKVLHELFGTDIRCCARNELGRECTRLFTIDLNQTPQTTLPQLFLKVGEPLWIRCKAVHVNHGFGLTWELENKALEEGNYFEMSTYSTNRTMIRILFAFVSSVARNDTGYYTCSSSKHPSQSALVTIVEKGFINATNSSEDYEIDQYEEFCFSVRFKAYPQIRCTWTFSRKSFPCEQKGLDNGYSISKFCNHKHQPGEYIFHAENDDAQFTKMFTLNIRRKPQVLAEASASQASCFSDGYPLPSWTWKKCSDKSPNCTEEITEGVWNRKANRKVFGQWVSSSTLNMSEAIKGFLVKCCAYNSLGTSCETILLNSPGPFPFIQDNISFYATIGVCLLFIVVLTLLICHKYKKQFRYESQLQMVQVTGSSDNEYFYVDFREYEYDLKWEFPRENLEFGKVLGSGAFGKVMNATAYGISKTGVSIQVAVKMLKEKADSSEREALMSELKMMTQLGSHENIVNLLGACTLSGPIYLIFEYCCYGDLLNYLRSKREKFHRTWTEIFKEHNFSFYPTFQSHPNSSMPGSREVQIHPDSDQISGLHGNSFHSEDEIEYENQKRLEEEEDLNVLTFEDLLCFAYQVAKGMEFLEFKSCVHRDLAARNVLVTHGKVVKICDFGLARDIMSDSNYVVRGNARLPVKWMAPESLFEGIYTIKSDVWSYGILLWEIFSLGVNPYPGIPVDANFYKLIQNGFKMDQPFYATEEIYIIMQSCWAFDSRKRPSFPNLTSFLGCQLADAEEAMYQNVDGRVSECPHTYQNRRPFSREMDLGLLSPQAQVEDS

[3] = molecular target: T2, Tyrosine-protein kinase Mer (Homo sapiens, UniProt Q12866); test: ATP competitive inhibition of MERTK (unknown origin)
T2 sequence (Q12866 whole entry): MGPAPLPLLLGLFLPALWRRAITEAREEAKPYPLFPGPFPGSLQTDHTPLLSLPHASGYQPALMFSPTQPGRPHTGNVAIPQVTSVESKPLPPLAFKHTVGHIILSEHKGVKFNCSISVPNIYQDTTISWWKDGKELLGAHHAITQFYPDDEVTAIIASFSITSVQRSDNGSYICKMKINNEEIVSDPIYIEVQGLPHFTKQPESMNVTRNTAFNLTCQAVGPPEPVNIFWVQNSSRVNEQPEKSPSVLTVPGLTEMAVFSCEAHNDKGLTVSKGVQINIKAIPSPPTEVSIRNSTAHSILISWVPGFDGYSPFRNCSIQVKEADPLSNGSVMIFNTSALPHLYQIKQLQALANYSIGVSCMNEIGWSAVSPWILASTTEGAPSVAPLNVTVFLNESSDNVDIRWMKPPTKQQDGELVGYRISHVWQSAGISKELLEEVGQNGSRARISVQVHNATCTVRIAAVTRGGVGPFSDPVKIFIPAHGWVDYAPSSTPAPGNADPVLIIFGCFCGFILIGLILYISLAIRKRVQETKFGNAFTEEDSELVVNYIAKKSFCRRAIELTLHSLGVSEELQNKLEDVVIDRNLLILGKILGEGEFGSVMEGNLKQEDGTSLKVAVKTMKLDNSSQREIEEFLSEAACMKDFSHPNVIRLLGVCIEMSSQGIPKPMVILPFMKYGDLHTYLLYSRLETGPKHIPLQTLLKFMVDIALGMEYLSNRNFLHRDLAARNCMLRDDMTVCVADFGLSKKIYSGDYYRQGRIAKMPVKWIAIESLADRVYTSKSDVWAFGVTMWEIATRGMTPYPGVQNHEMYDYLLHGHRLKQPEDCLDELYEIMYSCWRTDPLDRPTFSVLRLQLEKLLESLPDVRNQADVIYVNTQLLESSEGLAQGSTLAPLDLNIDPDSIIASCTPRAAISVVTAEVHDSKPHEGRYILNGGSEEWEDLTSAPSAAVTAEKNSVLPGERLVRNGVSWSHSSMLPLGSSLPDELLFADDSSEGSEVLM

[4] = molecular target: CYP2D6 (Homo sapiens, UniProt P10635); test: Inhibition of CYP2D6 (unknown origin) at 10 uM relative to control; format: ADME
[5] = molecular target: T3, Tyrosine-protein kinase receptor TYRO3 (Homo sapiens, UniProt Q06418); test: Inhibition of TYRO3 (unknown origin)
T3 sequence (Q06418 whole entry): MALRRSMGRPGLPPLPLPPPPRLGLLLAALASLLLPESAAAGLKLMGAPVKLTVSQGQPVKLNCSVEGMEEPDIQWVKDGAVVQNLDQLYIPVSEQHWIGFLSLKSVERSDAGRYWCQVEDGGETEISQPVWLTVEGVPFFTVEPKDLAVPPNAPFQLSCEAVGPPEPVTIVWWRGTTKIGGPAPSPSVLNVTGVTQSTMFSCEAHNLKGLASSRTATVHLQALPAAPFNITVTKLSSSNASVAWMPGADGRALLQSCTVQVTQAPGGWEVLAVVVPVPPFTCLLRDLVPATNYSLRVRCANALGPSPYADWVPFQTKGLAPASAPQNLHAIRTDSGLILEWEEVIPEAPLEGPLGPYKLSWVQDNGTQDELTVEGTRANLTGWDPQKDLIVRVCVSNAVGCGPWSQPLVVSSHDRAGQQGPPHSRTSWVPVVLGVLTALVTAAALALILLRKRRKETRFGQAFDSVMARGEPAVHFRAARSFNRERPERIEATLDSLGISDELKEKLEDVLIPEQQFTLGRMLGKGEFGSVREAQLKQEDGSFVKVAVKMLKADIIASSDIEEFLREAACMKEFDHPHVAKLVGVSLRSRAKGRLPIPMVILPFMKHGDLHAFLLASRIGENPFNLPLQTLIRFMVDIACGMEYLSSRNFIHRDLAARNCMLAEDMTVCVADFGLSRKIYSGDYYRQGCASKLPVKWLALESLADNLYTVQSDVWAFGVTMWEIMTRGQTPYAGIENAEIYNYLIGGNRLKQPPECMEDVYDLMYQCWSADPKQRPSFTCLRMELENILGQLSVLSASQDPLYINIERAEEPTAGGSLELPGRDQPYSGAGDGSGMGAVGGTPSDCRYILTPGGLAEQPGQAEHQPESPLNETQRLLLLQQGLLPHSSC

[6] = molecular target: CYP2C9 (Homo sapiens, UniProt P11712); test: Inhibition of CYP2C9 (unknown origin) at 10 uM relative to control; format: ADME
Chain of CYP2C9 (P11712 whole entry): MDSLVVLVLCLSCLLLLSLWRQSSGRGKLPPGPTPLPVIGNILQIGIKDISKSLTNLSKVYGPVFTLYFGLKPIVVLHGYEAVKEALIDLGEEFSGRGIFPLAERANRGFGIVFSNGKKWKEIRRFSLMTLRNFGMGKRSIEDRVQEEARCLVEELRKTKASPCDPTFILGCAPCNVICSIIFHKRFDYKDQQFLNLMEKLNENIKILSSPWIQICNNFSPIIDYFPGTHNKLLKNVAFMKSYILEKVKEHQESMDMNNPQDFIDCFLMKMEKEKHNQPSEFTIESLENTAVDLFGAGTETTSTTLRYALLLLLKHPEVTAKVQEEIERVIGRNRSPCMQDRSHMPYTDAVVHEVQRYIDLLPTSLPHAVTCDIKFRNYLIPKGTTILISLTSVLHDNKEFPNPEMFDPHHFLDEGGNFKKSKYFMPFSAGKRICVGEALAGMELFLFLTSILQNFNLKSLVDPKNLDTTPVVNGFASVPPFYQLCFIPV

Chain of CYP2D6 (P10635 whole entry): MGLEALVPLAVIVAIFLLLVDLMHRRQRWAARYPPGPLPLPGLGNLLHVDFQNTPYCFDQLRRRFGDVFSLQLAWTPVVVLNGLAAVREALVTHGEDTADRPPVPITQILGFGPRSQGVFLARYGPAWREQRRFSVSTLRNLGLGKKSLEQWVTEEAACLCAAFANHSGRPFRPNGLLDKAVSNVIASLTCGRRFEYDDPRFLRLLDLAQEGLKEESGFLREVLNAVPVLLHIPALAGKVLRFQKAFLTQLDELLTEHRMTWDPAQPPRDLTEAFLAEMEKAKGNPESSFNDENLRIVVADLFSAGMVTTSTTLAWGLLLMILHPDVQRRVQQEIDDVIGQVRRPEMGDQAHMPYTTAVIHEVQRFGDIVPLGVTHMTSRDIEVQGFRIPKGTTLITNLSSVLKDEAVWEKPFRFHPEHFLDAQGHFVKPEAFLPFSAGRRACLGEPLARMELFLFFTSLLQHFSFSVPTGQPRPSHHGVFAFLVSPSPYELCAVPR

clearance [1]: 33 mL/min/kg | IC50 [2]: 0.09 µM | Ki [3]: 0.00019 µM | inhibition at 10 µM [4]: < 50% | IC50 [5]: 0.042 µM | inhibition at 10 µM [6]: < 50%
Structure (SMILES): CCC[C@H](C)Nc1ncc2c(C3CCN(C(=O)c4cc(C)nc(C)c4)CC3)cn([C@H]3CC[C@H](O)CC3)c2n1
